As a reminder, the IC50 is the midpoint of a concentration-inhibition curve. A lower IC50 goes with inhibition by little substance. By Kd is commonly meant a measure of binding affinity in units of concentration.

One assay addresses Q46 aggregates. The assay is described as follows: RBA competition binding against tritiated 3, Q46 aggregates. Particulars: 0.3 nM tritiated 3 as radioligand; 1 µM aggregates; mean ± SD. How it is done: For the competition assay format, Q46 or Exon1-Q46 aggregates at 1 µM (sample volume 150 µL) were pre-incubated in a 96-well round bottom plate (Corning, #3365) for 20 min with test compounds at room temperature (assay buffer 50 mM Tris–HCl pH 8.0, 150 mM NaCl). […] Radioligand 3 at 0.3 nM was added and incubated for 1 h at 37 °C.
Samples were then transferred onto a 96-well GF/B filter plate (Perkin Elmer, #6005177) using a Filtermate Harvester, aspirated by vacuum and wells washed twice with 200 µL PBS. After drying the filter plates for 1 h at 55 °C the back of the plate was sealed with aluminum cover and 30 µL of scintillation fluid (Perkin Elmer, #6013641) per well was added. The tops of the plates were sealed, and the plates were incubated for 15 min in the dark and counted in a TopCount or MicroBeta2 reader (both Perkin Elmer).
Raw sample data collected as counts per minute (cpm) were normalized towards assay controls: 0% inhibition = radioligand + protein + vehicle, 100% inhibition = radioligand + protein + 1 µM unlabeled ligand. A 4-parameter […] fit was applied to generate IC50 values.

Another assay addresses zQ175 brain homogenates. Briefly: Whole brain homogenate RBA saturation binding, HOM zQ175. The note with it: HOM zQ175 12 months whole brain homogenate. Also on record: species or system mouse. As for the experimental part:
For RBA in vitro binding assays, brain tissue was sliced (50 µm), weighed and homogenized in PBS (Gibco, 14190-94), 0.1% BSA with a glass pestle (10 strokes) at a concentration of 12–15 mg wet tissue per mL buffer. The crude homogenate concentration was then adjusted to 10 mg/mL (wet tissue) and stored as single-use aliquots at -80 °C.
For saturation binding experiments, aggregate lysate preparation and final concentration in the assay, assay buffer, incubation times and plate processing were identical to the competition format. Radioligand was titrated up to 100 nM. Raw cpm were converted into nM using a calibration line of total added radioligand without washing and filtering (spiked onto the filter plate and dried) (e.g., X) and normalized to the concentration of protein (e.g., Y) to finally obtain […] (e.g., X/Y). Specific binding (SB) was calculated as full binding minus full competition (in the presence of excess unlabeled ligand) and a hyperbolic mono-phasic fit was applied using GraphPad Prism to determine Kd and Bmax.

A further assay addresses T1, Exon1-Q46 aggregates (Homo sapiens, UniProt P42858, INS38QQQQQQQQQQQQQQQQQQQQQQQQQ).
T1 construct: MBP-HTT(1-89)Q46-His(6x); MBP (N, cleaved yes); made in house; host or cells: E. coli BL21 (DE3)
The assay is described as follows: RAFTA saturation binding, recombinant Exon1-Q46 aggregates.

Assay [1] relates to mHTT aggregates in human HD brain sections. Briefly: ARG, human post-mortem HD frontal cortex sections. The class given is binding.

T1 sequence (P42858 with tags, fused parts or gaps with the stated changes): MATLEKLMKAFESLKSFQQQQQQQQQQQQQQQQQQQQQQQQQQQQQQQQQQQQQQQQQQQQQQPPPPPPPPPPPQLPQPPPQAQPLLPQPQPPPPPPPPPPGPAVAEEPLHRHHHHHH

Compound `COc1ccc(COc2ccc3oc(-c4ccc(=O)n(C)n4)nc3c2)nc1` [CHDI-180] displayed an IC50 on Q46 aggregates of 1.2 ± 0.5 nM. Also, on zQ175 brain homogenates, the Kd was determined as 2.4 nM. The “RBA Bmax” value in the assay with zQ175 brain homogenates (per mg tissue) was determined as 34.0 fmol/mg. Besides, on Exon1-Q46 aggregates, the Kd amounted to 5.6 nM and the “RAFTA Bmax” value is on record as 1456 fmol/mg. For the same compound, the “NSB in HD brain sections” value in assay [1] (1 nM radioligand plus cold compound) was “below 0.5 fmol/mg tissue”. In assay [1] (1 nM radioligand, gray matter), the “binding to frontal cortical sections from HD donors” value worked out at 2.0 ± 0.4 fmol/mg tissue. This compound showed a white matter binding in assay [1] (1 nM radioligand, human frontal cortex sections) of at most 0.5 fmol/mg tissue.
